Measured values published in patent publication US20100184683A1, “ANTIBACTERIAL AND ANTIFUNGAL PEPTIDES” (C3 JIAN, INC., priority 2009, published 2010).
Converted amounts (≈) assume the structure as drawn. Read-outs that look alike come from different tables or passages of the source. Each block holds one molecule with its values, some of them ahead of it. Peptide text beside a SMILES is read from it.

Experiments:
S. pneumoniae = format: cell-based, Streptococcus pneumoniae
Method: (§1) In certain embodiments the MIC assays are performed as described herein in the Examples. For each organism, the media and growth conditions utilized is detailed in Table 8.
(§2) In certain embodiments the MIC assays are performed as follows: For each organism, the media and growth conditions utilized is detailed in Table 8.

A. niger = format: cell-based, Aspergillus niger
Method: as §1, §2

B. subtilis = format: cell-based, Bacillus subtilis
Method: as §1, §2

MRSA = format: cell-based, Methicillin-resistant Staphylococcus aureus
Method: as §1, §2

[1] = S. pneumoniae, TSB supplemented with 5% yeast extract, 37° C., 10% CO2, inoculum 10^6 CFU/ml, 18-24 h or 48 h
[2] = A. niger, Potato Dextrose Agar, 25° C., aerobic, inoculum 10^5 CFU/ml, 18-24 h or 48 h

Molecule: CC[C@H](C)[C@H](NC(=O)CN)C(=O)N[C@H](C(=O)N[C@@H](CC(C)C)C(=O)N[C@H](C(=O)NCC(=O)N[C@@H](CC(C)C)C(=O)N[C@@H](CCCCN)C(=O)N[C@@H](CC(C)C)C(=O)N[C@H](C(=O)N1CCC[C@H]1C(=O)N[C@@H](CC(C)C)C(=O)N[C@@H](CC(C)C)C(=O)N[C@@H](C)C(=O)N[C@@H](CC(N)=O)C(=O)N[C@H](C(=O)N[C@@H](CC(C)C)C(=O)N[C@@H](CCCNC(=N)N)C(=O)O)C(C)C)[C@@H](C)CC)[C@@H](C)CC)C(C)C [PF-322] (H-GIVLIGLKLIPLLANVLR-OH; N-terminus and C-terminus assumed)
MIC (B. subtilis): 50 µM (≈ 95.8 µg/mL)

Molecule: CC[C@H](C)[C@H](NC(=O)[C@H](CCC(N)=O)NC(=O)[C@H](CC(=O)O)NC(=O)[C@H](CO)NC(=O)[C@H](Cc1ccccc1)NC(=O)[C@@H](N)CCCCN)C(=O)N[C@@H](CC(=O)O)C(=O)N[C@@H](CCCCN)C(=O)NCC(=O)N[C@@H](CCC(N)=O)C(=O)N[C@@H](CC(=O)O)C(=O)N[C@@H](C)C(=O)N[C@@H](CC(C)C)C(=O)N[C@@H](CCCCN)C(=O)N[C@@H](CC(=O)O)C(=O)N[C@@H](CCCCN)C(=O)N[C@@H](CC(C)C)C(=O)NCC(=O)N[C@@H](CC(=O)O)C(=O)N[C@@H](CC(C)C)C(=O)O [PF-525] (H-KFSDQIDKGQDALKDKLGDL-OH; N-terminus and C-terminus assumed)
MIC (S. pneumoniae): 50 µM (≈ 112 µg/mL)
MIC (A. niger): 50 µM (≈ 112 µg/mL)

Molecule: CC[C@H](C)[C@H](NC(=O)[C@H](CC(C)C)NC(=O)[C@@H]1CCCN1C(=O)[C@@H]1CCCN1C(=O)[C@H](CCCCN)NC(=O)[C@@H](NC(=O)[C@H](Cc1ccc(O)cc1)NC(=O)[C@H](CC(C)C)NC(=O)[C@H](CO)NC(=O)[C@H](CCC(N)=O)NC(=O)[C@H](CCSC)NC(=O)[C@@H](N)C(C)C)C(C)C)C(=O)N[C@@H](CC(C)C)C(=O)N[C@H](C(=O)N[C@H](C(=O)N[C@@H](CCCCN)C(=O)N[C@@H](CC(C)C)C(=O)N[C@@H](C)C(=O)N[C@@H](CCC(N)=O)C(=O)N[C@@H](CCC(N)=O)C(=O)N[C@@H](CC(N)=O)C(=O)O)[C@@H](C)O)C(C)C [PF-511] (H-VMQSLYVKPPLILVTKLAQQN-OH; N-terminus and C-terminus assumed)
MIC (S. pneumoniae; [1]): 50 µM (≈ 119 µg/mL)

Molecule: CC[C@H](C)[C@H](NC(=O)[C@H](CCCNC(=N)N)NC(=O)[C@H](CCCCN)NC(=O)[C@H](CCCCN)NC(=O)[C@H](CCSC)NC(=O)[C@H](CO)NC(=O)[C@H](CC(C)C)NC(=O)[C@H](CC(C)C)NC(=O)[C@H](CCCCN)NC(=O)[C@H](CCCNC(=N)N)NC(=O)[C@@H](NC(=O)[C@@H](NC(=O)[C@@H](NC(=O)[C@H](CC(C)C)NC(=O)[C@@H](NC(=O)[C@H](Cc1ccc(O)cc1)NC(=O)[C@H](CC(C)C)NC(=O)[C@H](Cc1ccccc1)NC(=O)[C@H](CO)NC(=O)[C@H](Cc1ccc(O)cc1)NC(=O)[C@@H](N)C(C)C)C(C)C)C(C)C)[C@@H](C)CC)C(C)C)C(=O)N[C@@H](CCC(=O)O)C(=O)N[C@@H](CCCNC(=N)N)C(=O)N[C@@H](CC(C)C)C(=O)O [PF-499] (H-VYSFLYVLVIVRKLLSMKKRIERL-OH; N-terminus and C-terminus assumed)
MIC (B. subtilis): 50 µM (≈ 148 µg/mL)

Molecule: LSEMERRRLRKRA [PF-529]
MIC (S. pneumoniae; [1]): 50 µM
MIC (A. niger; [2]): 50 µM

Molecule: CC[C@H](C)[C@H](NC(=O)[C@@H](NC(=O)[C@@H](NC(=O)[C@@H]1CCCN1C(=O)[C@@H](NC(=O)[C@H](CCC(=O)O)NC(=O)[C@H](CC(=O)O)NC(=O)[C@H](CC(=O)O)NC(=O)[C@H](CC(=O)O)NC(=O)[C@H](CCC(N)=O)NC(=O)[C@H](Cc1ccccc1)NC(=O)[C@H](CC(=O)O)NC(=O)[C@H](CCC(=O)O)NC(=O)[C@@H](NC(=O)[C@H](CCC(=O)O)NC(=O)[C@H](CCC(=O)O)NC(=O)CNC(=O)[C@@H](NC(=O)[C@H](Cc1ccccc1)NC(=O)[C@@H]1CCCN1C(=O)[C@H](CCCCN)NC(=O)[C@H](CCC(N)=O)NC(=O)[C@@H](N)Cc1ccccc1)[C@@H](C)O)C(C)C)[C@@H](C)CC)[C@@H](C)O)[C@@H](C)CC)C(=O)O [PF-437] (H-FQKPFTGEEVEDFQDDDEIPTII-OH; N-terminus and C-terminus assumed)
MIC (S. pneumoniae): 50 µM (≈ 136 µg/mL)

Molecule: LGLTAGVAYAAQPTNQPTNQPTNQPTNQPTNQPTNQPRW [PF-520]
MIC (S. pneumoniae; [1]): 50 µM

Molecule: RESKLIAMADMIRRRI [PF-545]
MIC (MRSA; MRSA, BHI supplemented with 2% glucose, 37° C., aerobic, inoculum 10^5 CFU/ml, 18-24 h or 48 h): 50 µM
MIC (B. subtilis; B. subtilis, BHI, 30° C., aerobic, inoculum 10^5 CFU/ml, 18-24 h or 48 h): 25 µM
MIC (A. niger; [2]): 50 µM

Other lines, results leading:

MIC (S. pneumoniae): 50 µM (≈ 85.9 µg/mL)
MIC (A. niger): 25 µM (≈ 43 µg/mL)
Molecule: CC(C)C[C@H](NC(=O)[C@H](CCC(N)=O)NC(=O)[C@H](CO)NC(=O)[C@H](CCC(N)=O)NC(=O)[C@H](CC(C)C)NC(=O)[C@@H](N)CO)C(=O)NCC(=O)N1CCC[C@H]1C(=O)N[C@@H](CS)C(=O)N[C@@H](CC(C)C)C(=O)N[C@@H](Cc1c[nH]cn1)C(=O)N[C@@H](CC(=O)O)C(=O)N[C@@H](CCC(N)=O)C(=O)N[C@@H](CCCNC(=N)N)C(=O)N[C@@H](Cc1c[nH]cn1)C(=O)O [PF-448] (H-SLQSQLGPCLHDQRH-OH; N-terminus and C-terminus assumed)

MIC (S. pneumoniae): 50 µM (≈ 135 µg/mL)
Molecule: CC[C@H](C)[C@H](NC(=O)[C@H](CCCNC(=N)N)NC(=O)[C@H](CO)NC(=O)[C@H](CC(C)C)NC(=O)[C@H](C)NC(=O)[C@H](C)NC(=O)[C@H](CC(C)C)NC(=O)[C@@H](NC(=O)[C@@H]1CCCN1C(=O)[C@H](CCCCN)NC(=O)[C@H](Cc1c[nH]cn1)NC(=O)[C@H](Cc1ccc(O)cc1)NC(=O)[C@H](CS)NC(=O)[C@@H](NC(=O)[C@H](CCCNC(=N)N)NC(=O)[C@@H]1CCCN1C(=O)[C@H](C)NC(=O)[C@H](CC(=O)O)NC(=O)[C@@H]1CCCN1)[C@@H](C)O)[C@@H](C)CC)C(=O)N[C@H](C(=O)N[C@H](C(=O)N[C@H](C(=O)N[C@@H](CC(=O)O)C(=O)N[C@@H](CCCNC(=N)N)C(=O)O)[C@@H](C)O)C(C)C)C(C)C [PF-524] (H-PDAPRTCYHKPILAALSRIVVTDR-OH; N-terminus and C-terminus assumed)

MIC (S. pneumoniae): 50 µM (≈ 91.3 µg/mL)
Molecule: CC(C)C[C@H](NC(=O)[C@H](CCCCN)NC(=O)CNC(=O)[C@@H](N)CS)C(=O)N[C@@H](CC(C)C)C(=O)N[C@@H](CCC(=O)O)C(=O)N[C@@H](CCC(N)=O)C(=O)N[C@@H](CCCCN)C(=O)N[C@@H](CC(N)=O)C(=O)N[C@@H](Cc1ccccc1)C(=O)N[C@@H](Cc1ccccc1)C(=O)N[C@@H](CC(C)C)C(=O)N[C@@H](CCCCN)C(=O)N[C@H](C(=O)N[C@@H](CCCNC(=N)N)C(=O)O)[C@@H](C)O [PF-521] (H-CGKLLEQKNFFLKTR-OH; N-terminus and C-terminus assumed)

MIC (MRSA): 50 µM (≈ 44.5 µg/mL)
Molecule: CC(C)[C@H](NC(=O)[C@H](C)NC(=O)[C@H](Cc1ccc(O)cc1)NC(=O)[C@@H](N)CC(N)=O)C(=O)N[C@H](C(=O)N[C@@H](CO)C(=O)N[C@@H](Cc1c[nH]cn1)C(=O)N[C@H](C(=O)O)[C@@H](C)O)C(C)C [PF-209] (H-NYAVVSHT-OH; N-terminus and C-terminus assumed)

MIC (B. subtilis): 50 µM (≈ 136 µg/mL)
Molecule: CC[C@H](C)[C@H](NC(=O)[C@H](Cc1ccccc1)NC(=O)[C@@H](NC(=O)[C@H](Cc1ccccc1)NC(=O)[C@H](CC(C)C)NC(=O)[C@H](CC(=O)O)NC(=O)[C@@H](NC(=O)[C@H](CS)NC(=O)[C@@H](NC(=O)[C@H](CCCNC(=N)N)NC(=O)[C@H](CC(C)C)NC(=O)[C@@H](NC(=O)[C@@H](N)CC(C)C)C(C)C)[C@@H](C)CC)[C@@H](C)O)[C@@H](C)O)C(=O)N[C@@H](CCCCN)C(=O)N[C@@H](Cc1c[nH]c2ccccc12)C(=O)N[C@H](C(=O)N[C@H](C(=O)N[C@@H](CCCCN)C(=O)N[C@@H](CCC(N)=O)C(=O)N[C@@H](CCCNC(=N)N)C(=O)N[C@@H](CCCCN)C(=O)N[C@@H](CO)C(=O)O)[C@@H](C)CC)[C@@H](C)O [PF-497] (H-LVLRICTDLFTFIKWTIKQRKS-OH; N-terminus and C-terminus assumed)

MIC (B. subtilis): 50 µM (≈ 161 µg/mL)
MIC (A. niger): 50 µM (≈ 161 µg/mL)
Molecule: CSCC[C@H](NC(=O)[C@H](CCCNC(=N)N)NC(=O)[C@H](CCCNC(=N)N)NC(=O)[C@H](CC(C)C)NC(=O)[C@H](CCCNC(=N)N)NC(=O)[C@H](CCC(=O)O)NC(=O)[C@@H](NC(=O)[C@H](CS)NC(=O)CNC(=O)[C@H](CCCNC(=N)N)NC(=O)[C@@H](N)CCCNC(=N)N)[C@@H](C)O)C(=O)N[C@@H](C)C(=O)N[C@@H](CCCNC(=N)N)C(=O)N[C@@H](CCCNC(=N)N)C(=O)N[C@@H](CC(N)=O)C(=O)N[C@@H](C)C(=O)N[C@@H](Cc1c[nH]c2ccccc12)C(=O)N[C@@H](CC(=O)O)C(=O)N[C@@H](CC(C)C)C(=O)N[C@@H](Cc1ccc(O)cc1)C(=O)N[C@@H](C)C(=O)N[C@@H](CCC(=O)O)C(=O)N[C@@H](Cc1c[nH]cn1)C(=O)N[C@@H](Cc1ccccc1)C(=O)N[C@@H](Cc1ccc(O)cc1)C(=O)O [PF-148] (H-RRGCTERLRRMARRNAWDLYAEHFY-OH; N-terminus and C-terminus assumed)
